What follows are molecules tested on HEK293T cells carrying the ATF4 luciferase reporter (assay: ATF4-Luc assay (in vitro model of VWMD)). Conditions: Homo sapiens, HEK-293T; HEK293T cells with ATF4 5'-UTR firefly luciferase reporter; 1 μg/mL tunicamycin; 7 hours; One Glo luminescence.
Assay type: cell-based
Method: In order to test exemplary compounds of the invention in a cellular context, a stable VWMD cell line was first constructed. The ATF4 reporter was prepared by fusing the human full-length ATF4 5′-UTR (NCBI Accession No. BC022088.2) in front of the firefly luciferase (FLuc) coding sequence lacking the initiator methionine as described in Sidrauski et al (eLife 2013). The construct was used to produce recombinant retroviruses using standard methods and the resulting viral supernatant was used to transduce HEK293T cells, which were then subsequently selected with puromycin to generate a stable cell line.
HEK293T cells carrying the ATF4 luciferase reporter were plated on polylysine coated 384-well plates (Greiner Bio-one) at 30,000 cells per well. Cells were treated the next day with 1 μg/mL tunicamycin and 200 nM of a compound of Formula (I) for 7 hours. Luminescence was measured using One Glo (Promega) as specified by the manufacturer. Cells were maintained in DMEM with L-glutamine supplemented with 10% heat-inactivated FBS (Gibco) and Antibiotic-Antimycotic solution (Gibco).
Table 2 below summarizes the EC50 data obtained using the ATF4-Luc assay for exemplary compounds of the invention.

SMILES	EC50
O=C(COc1ccc(Cl)c(F)c1)N[C@H]1CC[C@H](C(=O)Nc2ccc(OC(F)(F)F)cn2)CC1 [Compound 110, (1r,4r)-4-[2-(4-chloro-3-fluorophenoxy)acetamido]-N-[5-(trifluoromethoxy)pyridin-2-yl]cyclohexane-1-carboxamide]	10 to 50 nM
O=C(COc1ccc(Cl)c(F)c1)N[C@H]1CC[C@@H](C(=O)NCc2ccc(C(F)(F)F)cn2)OC1 (single isomer, unassigned) [Compound 162]	> 2000 nM
O=C(COc1ccc(Cl)c(F)c1)N[C@@H]1CC[C@H](C(=O)NCc2ccc(C(F)(F)F)cn2)OC1 (single isomer, unassigned) [Compound 163]	> 2000 nM
O=C(COc1ccc(Cl)c(Cl)c1)N[C@H]1CC[C@H](C(=O)NCc2ccc(C(F)(F)F)cn2)CC1 [Compound 183, (1r,4r)-4-[2-(3,4-dichlorophenoxy)acetamido]-N-{[5-(trifluoromethyl)pyridin-2-yl]methyl}cyclohexane-1-carboxamide]	< 10 nM
O=C(COc1ccc(Cl)c(F)c1)N[C@H]1CC[C@H](C(=O)NCc2ccc(C(F)(F)F)cn2)CC1 [Compound 119, (1r,4r)-4-[2-(4-chloro-3-fluorophenoxy)acetamido]-N-{[5-(trifluoromethyl)pyridin-2-yl]methyl}cyclohexane-1-carboxamide]	< 10 nM
O=C(COc1ccc(Cl)c(F)c1)N[C@H]1CC[C@H](C(=O)N2CCN(c3cccc(Cl)c3)C(=O)C2)CC1 [Compound 126, 2-(4-chloro-3-fluorophenoxy)-N-{(1r,4r)-4-[4-(3-chlorophenyl)-3-oxopiperazine-1-carbonyl]cyclohexyl}acetamide]	500 to 2000 nM
O=C(COc1ccc(Cl)c(F)c1)N[C@H]1CC[C@H](C(=O)N(CCO)Cc2ccc(Cl)c(F)c2)CC1 [Compound 181, (1r,4r)-4-[2-(4-chloro-3-fluorophenoxy)acetamido]-N-[(4-chloro-3-fluorophenyl)methyl]-N-(2-hydroxyethyl)cyclohexane-1-carboxamide]	500 to 2000 nM
COc1ncc(CNC(=O)[C@@H]2CC[C@@H](NC(=O)COc3ccc(Cl)c(F)c3)CO2)cn1 [Compound 140, (2S,5R)-5-[2-(4-chloro-3-fluorophenoxy)acetamido]-N-[(2-methoxypyrimidin-5-yl)methyl]oxane-2-carboxamide]	> 2000 nM
O=C(COc1ccc(Cl)c(Cl)c1)N[C@H]1CC[C@H](C(=O)NCc2cc(CO)ccn2)CC1 [Compound 182, (1r,4r)-4-[2-(3,4-dichlorophenoxy)acetamido]-N-{[4-(hydroxymethyl)pyridin-2-yl]methyl}cyclohexane-1-carboxamide]	> 2000 nM
O=C(COc1ccc(Cl)c(F)c1)N[C@H]1CC[C@H](C(=O)NCc2ccc3c(c2)OC(F)(F)O3)CC1 [Compound 179, (1r,4r)-4-[2-(4-chloro-3-fluorophenoxy)acetamido]-N-[(2,2-difluoro-2H-1,3-benzodioxol-5-yl)methyl]cyclohexane-1-carboxamide]	10 to 50 nM
O=C(COc1ccc(Cl)c(F)c1)N[C@@H]1CC[C@@H](C(=O)NCCOc2ccc(Cl)cc2)OC1 [Compound 137, (2S,5R)-5-[2-(4-chloro-3-fluorophenoxy)acetamido]-N-[2-(4-chlorophenoxy)ethyl]oxane-2-carboxamide]	10 to 50 nM
O=C(COc1ccc(Cl)c(Cl)c1)N[C@H]1CC[C@H](C(=O)NCc2ccc(OC(F)F)cc2)CC1 [Compound 104, (1r,4r)-4-[2-(3,4-dichlorophenoxy)acetamido]-N-{[4-(difluoromethoxy)phenyl]methyl}cyclohexane-1-carboxamide]	50 to 250 nM
O=C(COc1ccc(Cl)c(F)c1)N[C@H]1CC[C@H](C(=O)NCc2nc3cc(F)c(F)cc3[nH]2)CC1 [Compound 153, (1r,4r)-4-[2-(4-chloro-3-fluorophenoxy)acetamido]-N-[(5,6-difluoro-1H-benzimidazol-2-yl)methyl]cyclohexane-1-carboxamide]	> 2000 nM

Reference: patent US11939320B2, “Modulators of the integrated stress pathway” (Calico Life Sciences LLC, priority 2017, dated 2024)
